The target in assay [1] is T1, wild-type EGFR (Homo sapiens, UniProt P00533).
T1 construct: purchased Signalchem
In words: Enzymology experiment in vitro (HTRF/FRET kinase activity), wild-type EGFR. It is filed as biochemical. As to conditions: HTRF KinEASE-TK, read-out: EGFR (WT) IC50. On the procedure: 1. Experimental Materials
HTRF KinEASE-TK kit detection reagent, purchased from Cisbio
1) 10 nL of gradient diluted compound was transferred into a 384-well experimental plate using Echo 550 (Labcyte).
2) 5 μL of 2×EGFR enzyme solution was added to the 384-well experimental plate and incubated at room temperature for 10 minutes.
3) 5 μL of 2× substrate solution containing polypeptide and ATP was added to the 384-well experimental plate and incubated at room temperature for 40 minutes.
4) 10 μL of detection solution containing EDTA, XL665-labeled streptavidin and Eu^3+-labeled antibody was added thereto and incubated at room temperature for 1 hour.

The target of assay [2] is T2, L858R/T790M/C797S triple mutant EGFR (Homo sapiens, UniProt P00533, C797S/L858R/T790M).
T2 construct: purchased Signalchem
The assay can be described thus: Enzymology experiment in vitro (HTRF/FRET kinase activity), L858R/T790M/C797S triple mutant EGFR. Conditions: HTRF KinEASE-TK, read-out: EGFR (L858R/T790M/C797S) IC50. The class given is biochemical. The method, boiled down:
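HTRF KinEASE-TK format: EGFR enzyme preincubated with compound 10 min at room temperature, then peptide substrate plus ATP added for 40 min. Detection with EDTA, XL665-streptavidin and Eu³⁺-labeled antibody for 1 h.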

The subject of assay [3] is EGFR wild-type cell line A431. The assay can be described thus: Cell proliferation inhibition experiment (CellTiter-Glo), A431. It is filed as cell-based. Conditions: Homo sapiens, A-431, 72 h, A431 cells, Cell Titer-Glo, read-out: A431 EGFR WT IC50. The method, boiled down: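 A431 cells, 800 per well, were cultured 24 h and then exposed to serially diluted compound (0.1% DMSO final) for 72 h at 37° C., 5% CO2.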
In general terms: Cellular ATP, detected with luciferase, serves as a proxy for viable cell number.

Assay [4] addresses Ba/F3 De119/T790M/C797S EGFR triple mutant cell line (Homo sapiens, UniProt P00533, T790M/C797S, cells depend on it, form not given). The assay can be described thus: Cell proliferation inhibition experiment (CellTiter-Glo), Ba/F3 De119/T790M/C797S. Conditions: Ba/F3 Del19/T790M/C797S EGFR triple mutant cells, 72 hours, Cell Titer-Glo; read-out: Ba/F3 (Del19/T790M/C797S) IC50. It is filed as cell-based.

Assay [5] deals with Ba/F3 L858R/T790M/C797S EGFR triple mutant cell line (Homo sapiens, UniProt P00533, T790M/C797S/L858R, cells depend on it). In words: Cell proliferation inhibition experiment (CellTiter-Glo), Ba/F3 L858R/T790M/C797S. It is filed as cell-based. As to conditions: 72 hours, Cell Titer-Glo, read-out: Ba/F3 (L858R/T790M/C797S) IC50.

The text below walks through data of patent US20230219986A1, “NOVEL AMINOPYRIMIDINE EGFR INHIBITOR” (QILU PHARMACEUTICAL CO., LTD., priority 2020, published 2023).

Structures are written as SMILES.

T1 sequence (P00533 25-1210): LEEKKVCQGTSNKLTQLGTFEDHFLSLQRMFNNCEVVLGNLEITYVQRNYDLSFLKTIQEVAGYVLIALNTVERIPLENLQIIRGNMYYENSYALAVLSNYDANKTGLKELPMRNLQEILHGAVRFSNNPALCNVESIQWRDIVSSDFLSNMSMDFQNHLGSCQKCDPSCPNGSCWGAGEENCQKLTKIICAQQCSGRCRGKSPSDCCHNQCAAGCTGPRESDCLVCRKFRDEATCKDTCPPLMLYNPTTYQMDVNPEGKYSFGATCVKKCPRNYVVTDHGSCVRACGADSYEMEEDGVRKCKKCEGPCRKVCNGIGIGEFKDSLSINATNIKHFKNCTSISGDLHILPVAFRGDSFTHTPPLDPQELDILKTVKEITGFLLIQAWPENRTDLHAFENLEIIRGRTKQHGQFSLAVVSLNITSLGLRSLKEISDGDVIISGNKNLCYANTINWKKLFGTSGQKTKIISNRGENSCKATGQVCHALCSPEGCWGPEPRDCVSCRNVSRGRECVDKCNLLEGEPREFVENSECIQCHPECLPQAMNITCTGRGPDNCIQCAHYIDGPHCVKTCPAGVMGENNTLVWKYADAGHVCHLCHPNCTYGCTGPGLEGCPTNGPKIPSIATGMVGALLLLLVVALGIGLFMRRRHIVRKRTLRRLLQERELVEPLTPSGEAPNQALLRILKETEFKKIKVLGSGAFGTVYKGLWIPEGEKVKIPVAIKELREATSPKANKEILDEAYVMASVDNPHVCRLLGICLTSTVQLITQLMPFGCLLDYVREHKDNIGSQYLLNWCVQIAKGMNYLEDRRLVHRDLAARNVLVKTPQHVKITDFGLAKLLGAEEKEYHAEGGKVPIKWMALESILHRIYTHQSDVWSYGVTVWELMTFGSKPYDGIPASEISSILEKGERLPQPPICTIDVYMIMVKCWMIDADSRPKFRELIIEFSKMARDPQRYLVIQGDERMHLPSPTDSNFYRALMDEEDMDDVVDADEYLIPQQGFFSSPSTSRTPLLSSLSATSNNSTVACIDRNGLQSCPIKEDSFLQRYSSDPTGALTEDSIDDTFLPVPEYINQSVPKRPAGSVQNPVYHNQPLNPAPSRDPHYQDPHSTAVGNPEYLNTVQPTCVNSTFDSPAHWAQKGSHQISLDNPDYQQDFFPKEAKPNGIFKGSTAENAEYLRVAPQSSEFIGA
Chain of Ba/F3 L858R/T790M/C797S EGFR triple mutant cell line (P00533 whole entry T790M/C797S/L858R): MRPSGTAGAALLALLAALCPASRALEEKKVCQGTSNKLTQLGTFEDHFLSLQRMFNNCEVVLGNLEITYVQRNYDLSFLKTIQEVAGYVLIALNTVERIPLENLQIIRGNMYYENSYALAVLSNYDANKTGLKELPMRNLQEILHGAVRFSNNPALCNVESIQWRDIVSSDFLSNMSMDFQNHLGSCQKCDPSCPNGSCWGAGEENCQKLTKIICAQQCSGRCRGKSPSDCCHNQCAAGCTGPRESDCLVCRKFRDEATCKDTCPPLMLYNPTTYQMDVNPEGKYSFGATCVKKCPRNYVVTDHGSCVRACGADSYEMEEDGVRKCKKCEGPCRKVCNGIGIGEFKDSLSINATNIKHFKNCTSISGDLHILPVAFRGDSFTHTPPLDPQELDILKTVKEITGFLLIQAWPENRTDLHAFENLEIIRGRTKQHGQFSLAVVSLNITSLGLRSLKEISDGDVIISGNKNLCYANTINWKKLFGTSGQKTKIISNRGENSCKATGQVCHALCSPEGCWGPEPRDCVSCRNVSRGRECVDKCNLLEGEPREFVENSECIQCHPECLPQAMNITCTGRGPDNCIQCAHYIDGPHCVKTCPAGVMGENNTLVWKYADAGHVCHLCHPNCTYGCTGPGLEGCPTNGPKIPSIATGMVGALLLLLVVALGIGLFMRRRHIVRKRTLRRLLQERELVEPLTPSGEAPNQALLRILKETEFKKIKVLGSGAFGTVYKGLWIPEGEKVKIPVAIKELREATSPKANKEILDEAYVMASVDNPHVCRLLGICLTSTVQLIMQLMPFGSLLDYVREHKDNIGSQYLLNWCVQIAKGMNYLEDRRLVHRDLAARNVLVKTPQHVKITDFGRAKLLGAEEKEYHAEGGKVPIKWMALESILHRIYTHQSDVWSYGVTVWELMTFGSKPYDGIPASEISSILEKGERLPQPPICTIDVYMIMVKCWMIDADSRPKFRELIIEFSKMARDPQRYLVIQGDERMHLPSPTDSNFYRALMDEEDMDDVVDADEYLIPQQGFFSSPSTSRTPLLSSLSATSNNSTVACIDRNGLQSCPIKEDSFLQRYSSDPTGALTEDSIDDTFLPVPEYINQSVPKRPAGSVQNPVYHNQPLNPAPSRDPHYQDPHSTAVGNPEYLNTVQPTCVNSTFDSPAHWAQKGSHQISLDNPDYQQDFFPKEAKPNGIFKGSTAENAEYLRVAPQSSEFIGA
Chain of Ba/F3 De119/T790M/C797S EGFR triple mutant cell line (P00533 with tags, fused parts or gaps DEL746-750/T790M/C797S, form open): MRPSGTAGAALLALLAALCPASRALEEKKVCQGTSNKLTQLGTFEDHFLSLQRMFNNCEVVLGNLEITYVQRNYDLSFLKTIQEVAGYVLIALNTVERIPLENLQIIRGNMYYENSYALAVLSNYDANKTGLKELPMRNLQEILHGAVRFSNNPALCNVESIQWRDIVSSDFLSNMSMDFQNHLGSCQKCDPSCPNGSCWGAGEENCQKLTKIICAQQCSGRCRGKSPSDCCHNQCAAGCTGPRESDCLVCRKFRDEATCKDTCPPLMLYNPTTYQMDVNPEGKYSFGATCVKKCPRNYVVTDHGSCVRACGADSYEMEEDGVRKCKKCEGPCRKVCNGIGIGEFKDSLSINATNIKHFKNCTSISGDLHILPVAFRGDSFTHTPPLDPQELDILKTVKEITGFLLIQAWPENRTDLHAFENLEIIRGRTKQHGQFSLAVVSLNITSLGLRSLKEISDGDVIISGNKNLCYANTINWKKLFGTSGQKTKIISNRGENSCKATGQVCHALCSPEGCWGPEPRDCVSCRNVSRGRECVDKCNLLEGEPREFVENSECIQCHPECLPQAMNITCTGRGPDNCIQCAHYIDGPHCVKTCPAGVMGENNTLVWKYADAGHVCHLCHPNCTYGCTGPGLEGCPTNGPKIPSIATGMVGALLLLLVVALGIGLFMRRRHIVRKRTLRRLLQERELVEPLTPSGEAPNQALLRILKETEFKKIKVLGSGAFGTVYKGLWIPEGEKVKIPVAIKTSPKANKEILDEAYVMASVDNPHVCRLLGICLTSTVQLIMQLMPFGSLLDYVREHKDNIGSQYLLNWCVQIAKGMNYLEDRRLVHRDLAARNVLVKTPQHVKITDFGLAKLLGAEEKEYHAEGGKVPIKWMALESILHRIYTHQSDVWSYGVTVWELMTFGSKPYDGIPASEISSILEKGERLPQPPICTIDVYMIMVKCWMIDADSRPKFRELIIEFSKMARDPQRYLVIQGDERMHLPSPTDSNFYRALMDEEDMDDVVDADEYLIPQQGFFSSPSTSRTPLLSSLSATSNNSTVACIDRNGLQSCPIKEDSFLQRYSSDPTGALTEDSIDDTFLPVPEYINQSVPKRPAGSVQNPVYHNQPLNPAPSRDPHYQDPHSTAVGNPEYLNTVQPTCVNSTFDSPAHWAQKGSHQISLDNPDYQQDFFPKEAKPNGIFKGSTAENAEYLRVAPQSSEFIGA
T2 sequence (P00533 25-1210 T790M/C797S/L858R): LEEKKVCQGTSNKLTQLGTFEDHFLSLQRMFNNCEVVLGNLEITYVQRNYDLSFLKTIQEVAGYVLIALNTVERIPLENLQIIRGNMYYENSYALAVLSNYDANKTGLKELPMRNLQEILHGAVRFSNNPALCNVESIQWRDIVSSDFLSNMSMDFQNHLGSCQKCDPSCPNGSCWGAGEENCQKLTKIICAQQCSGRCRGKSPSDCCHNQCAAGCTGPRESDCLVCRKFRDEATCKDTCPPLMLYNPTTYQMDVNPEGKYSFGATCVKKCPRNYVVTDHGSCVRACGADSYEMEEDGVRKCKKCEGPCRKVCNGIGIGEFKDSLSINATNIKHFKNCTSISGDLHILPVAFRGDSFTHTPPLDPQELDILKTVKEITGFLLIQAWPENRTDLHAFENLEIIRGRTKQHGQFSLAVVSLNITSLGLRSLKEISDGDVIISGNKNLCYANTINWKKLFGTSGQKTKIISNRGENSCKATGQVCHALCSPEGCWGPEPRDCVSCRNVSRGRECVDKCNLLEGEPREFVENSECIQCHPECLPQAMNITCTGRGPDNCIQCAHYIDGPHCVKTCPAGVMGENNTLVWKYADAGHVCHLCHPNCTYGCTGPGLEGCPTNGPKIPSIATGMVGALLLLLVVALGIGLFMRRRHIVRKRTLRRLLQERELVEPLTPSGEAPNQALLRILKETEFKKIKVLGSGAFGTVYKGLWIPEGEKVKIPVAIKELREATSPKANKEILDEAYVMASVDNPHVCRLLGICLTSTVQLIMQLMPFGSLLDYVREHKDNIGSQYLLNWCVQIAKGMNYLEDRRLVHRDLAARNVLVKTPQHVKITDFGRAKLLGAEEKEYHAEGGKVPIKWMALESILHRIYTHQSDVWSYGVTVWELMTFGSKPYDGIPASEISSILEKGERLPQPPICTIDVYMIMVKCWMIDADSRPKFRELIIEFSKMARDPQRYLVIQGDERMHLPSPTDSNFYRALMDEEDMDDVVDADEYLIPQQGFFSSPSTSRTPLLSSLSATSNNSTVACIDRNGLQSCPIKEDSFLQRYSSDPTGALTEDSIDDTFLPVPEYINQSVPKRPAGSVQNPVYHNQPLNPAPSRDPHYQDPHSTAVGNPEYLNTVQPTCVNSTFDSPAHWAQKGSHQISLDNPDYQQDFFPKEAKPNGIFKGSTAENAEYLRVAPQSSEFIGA

`COc1cc(N2CCOCC2)c(-c2cnn(C(F)F)c2)cc1Nc1ncc(Br)c(Nc2ccc3nccnc3c2P(C)(C)=O)n1` [compound 78]: the IC50 in assay [1] was 45.5 nM; in assay [2] it was 0.53 nM; in assay [3], 550 nM. The GI50 in assay [4] is 6.76 nM; in assay [5] it was 14.4 nM.

`COc1cc(N2CCC(OC)C2)c(-c2cnn(C)c2)cc1Nc1ncc(Br)c(Nc2ccc3nccnc3c2P(C)(C)=O)n1` (stereo not drawn) [compound 128]: the results for the IC50 in assay [1], in assay [2] and in assay [3] were 6.83 nM, 0.53 nM and 397 nM, respectively. For the same compound, the figures for the GI50 in assay [4] and in assay [5] were 2.86 nM and 11.9 nM, respectively.

`COc1cc(N2CCOCC2)c(-c2cnn(C)c2)cc1Nc1ncc(Cl)c(Nc2ccc3nccnc3c2P(C)(C)=O)n1` [compound 72]: the IC50 in assay [1] was 4.69 nM; in assay [2] it was 0.2 nM; in assay [3], 370 nM. Moreover, the GI50 was 4.54 nM in assay [4] and 13.5 nM in assay [5].

As to `COc1cc(N2CCOC[C@H]2C)c(-c2cnn(C)c2)cc1Nc1ncc(Br)c(Nc2ccc3nccnc3c2P(C)(C)=O)n1` [compound 104], the figures for the IC50 in assay [1], in assay [2] and in assay [3] were 27.2 nM, 0.95 nM and 192 nM, respectively. Further, the GI50 in assay [4] came to 4.07 nM; in assay [5], 17.7 nM.

In the case of `COc1cc(N2CCC3(CC2)CN(C)CCN3C)c(-c2cnn(C)c2)cc1Nc1ncc(Br)c(Nc2ccc3nccnc3c2P(C)(C)=O)n1` [compound 194], the figures for the IC50 in assay [1], in assay [2] and in assay [3] were 2.85 nM, 0.17 nM and 79.5 nM, respectively. Also, the GI50 in assay [4] was 5.56 nM; in assay [5] it was 16.4 nM.

For `COc1cc(N2CCOCC2)c(-c2cnn(C)c2)cc1Nc1ncc(Br)c(Nc2cc3c(cc2N(C)S(C)(=O)=O)CC3)n1` [compound 147, N-(4-((5-bromo-2-((2-methoxy-5-(1-methyl-1H-pyrazol-4-yl)-4-morpholinylphenyl)amino)pyrimidin-4-yl)amino)bicyclo[4.2.0]octa-1,3,5-trien-3-yl)-N-methylmethanesulfonamide], the IC50 was determined as 53 nM in assay [1], 1.16 nM in assay [2] and 475 nM in assay [3]. Further, the GI50 is 1.3 nM in assay [4] and 2.93 nM in assay [5].

As for `COc1cc(N2CCOC(C)(C)C2)c(-c2cnn(C)c2)cc1Nc1ncc(Br)c(Nc2ccc3nccnc3c2P(C)(C)=O)n1` [compound 120], the values for the IC50 in assay [1], in assay [2] and in assay [3] were 9.84 nM, 1.17 nM and 197 nM, respectively. For the same compound, the GI50 in assay [4] came out at 2.62 nM; in assay [5], 8.67 nM.

In the case of `COc1cc(N2CCO[C@H](C)C2)c(-c2cnn(C)c2)cc1Nc1ncc(Br)c(Nc2ccc3nccnc3c2P(C)(C)=O)n1` [compound 169], the values for the IC50 in assay [1], in assay [2] and in assay [3] were 4.39 nM, 0.73 nM and 175 nM, respectively. The GI50 in assay [4] was 2.36 nM; in assay [5] it was 4.24 nM.

Regarding `COc1cc(N2CCOCC2)c(-c2cnn(C)c2)cc1Nc1ncc(C2CC2)c(Nc2ccc3nccnc3c2P(C)(C)=O)n1` [Compound 41, (6-((5-cyclopropyl-2-((2-methoxy-5-(1-methyl-1H-pyrazol-4-yl)-4-morpholinylphenyl)amino)pyrimidin-4-yl)amino)quinoxalin-5-yl)dimethylphosphine oxide], the results for the IC50 in assay [1], in assay [2] and in assay [3] were 21.1 nM, 0.31 nM and 371 nM, respectively. Further, the GI50 in assay [4] is 8.64 nM; in assay [5], 34.5 nM.

With `COc1nc(N2CCOCC2)c(-c2cnn(C)c2)cc1Nc1ncc(Br)c(Nc2ccc3nccnc3c2P(C)(C)=O)n1` [Compound 7, (6-((5-bromo-2-((2-methoxy-5-(1-methyl-1H-pyrazol-4-yl)-6-morpholinylpyridin-3-yl)amino)pyrimidin-4-yl)amino)quinoxalin-5-yl)dimethylphosphine oxide], the IC50 in assay [1] came to 9.88 nM; in assay [2], 0.23 nM; in assay [3], 159 nM. Further, the GI50 in assay [4] worked out at 4.43 nM; in assay [5], 14.8 nM.

For the compound `COc1cc(N2CCC3(CCN(C)CC3)CC2)c(-c2cnn(C)c2)cc1Nc1ncc(Br)c(Nc2ccc3nccnc3c2P(C)(C)=O)n1` [compound 101], the IC50 in assay [1] was determined as 0.41 nM; in assay [2] it was 0.18 nM; in assay [3], 46.1 nM. Besides, the GI50 in assay [4] came out at 2.87 nM; in assay [5] it was 4.53 nM.

With `COc1cc(N2CCC3(CC2)CN(C)CCO3)c(-c2cnn(C)c2)cc1Nc1ncc(Br)c(Nc2ccc3nccnc3c2P(C)(C)=O)n1` [compound 144, (6-((5-bromo-2-((2-methoxy-5-(1-methyl-1H-pyrazol-4-yl)-4-(4-methyl-1-oxa-4,9-diazaspiro[5.5]undecan-9-yl)phenyl)amino)pyrimidin-4-yl)amino)quinoxalin-5-yl)dimethylphosphine oxide], the values for the IC50 in assay [1], in assay [2] and in assay [3] were 2.77 nM, 0.66 nM and 84 nM, respectively. Besides, the GI50 in assay [4] worked out at 0.35 nM; in assay [5], 1.91 nM.

Consider `COc1cc(N2CCC(N3CCN(CC(F)F)CC3)CC2)c(-c2cnn(C)c2)cc1Nc1ncc(Br)c(Nc2ccc3nccnc3c2P(C)(C)=O)n1` [compound 186], for which the IC50 in assay [1] was 1.19 nM; in assay [2], 0.37 nM; in assay [3], 62 nM. The GI50 in assay [4] turned out to be 1.39 nM; in assay [5], 3.47 nM.

On to `COc1cc(N2CCNC(=O)C2)c(-c2cnn(C)c2)cc1Nc1ncc(Br)c(Nc2ccc3nccnc3c2P(C)(C)=O)n1` [compound 105], for which the IC50 in assay [1] is 5.62 nM; in assay [2], 0.16 nM; in assay [3], 1190 nM. In addition, the GI50 in assay [4] was 20.9 nM; in assay [5], 61.9 nM.

As to `COc1c(Nc2ncc(Br)c(Nc3ccc4nccnc4c3P(C)(C)=O)n2)cc(-c2cnn(C)c2)c(N2CCC(N3CCN(C)CC3)CC2)c1F` [compound 93], the IC50 in assay [1] was 23.1 nM; in assay [2], 0.18 nM; in assay [3] it was 178 nM. Moreover, the GI50 in assay [4] turned out to be 12.5 nM; in assay [5], 27 nM.

For `COc1cc(N2CCOCC2)c(-c2cnn(C)c2)cc1Nc1nccc(Nc2ccc3nccnc3c2P(C)(C)=O)n1` [Compound 42, (6-((2-((2-methoxy-5-(1-methyl-1H-pyrazol-4-yl)-4-morpholinophenyl)amino)pyrimidin-4-yl)amino)quinoxalin-5-yl)dimethylphosphine oxide], the IC50 is 166 nM in assay [1], 1.24 nM in assay [2] and at least 5000 nM in assay [3]. For the same compound, the values for the GI50 in assay [4] and in assay [5] were 6.76 nM and 69.2 nM, respectively.

Take `COc1cc(N2CCC3(CN(C)CCO3)C2)c(-c2cnn(C)c2)cc1Nc1ncc(Br)c(Nc2ccc3nccnc3c2P(C)(C)=O)n1` (stereo not drawn) [compound 146]: the figures for the IC50 in assay [1], in assay [2] and in assay [3] were 8.43 nM, 0.38 nM and 179 nM, respectively. Besides, the GI50 in assay [4] is 1.44 nM; in assay [5] it was 5.47 nM.

As to `COc1cc(N2CCC3(CC2)CCN(C2COC2)CC3)c(-c2cnn(C)c2)cc1Nc1ncc(Br)c(Nc2ccc3nccnc3c2P(C)(C)=O)n1` [compound 248], the IC50 was determined as 1.91 nM in assay [1], 0.29 nM in assay [2] and 84.7 nM in assay [3]. Moreover, the results for the GI50 in assay [4] and in assay [5] were 1.17 nM and 2.37 nM, respectively.
